Assay results: patent US20060100155A1, “Method for the therapeutic management of endometriosis” (priority 1999, published 2006)
Non-standard residues stand in square brackets, D forms with d. Residues, ends and D or L forms follow the SMILES beside them. dPhe(4-Cl) = N[C@H](Cc1ccc(Cl)cc1)C(=O)O; d2Nal = N[C@H](Cc1ccc2ccccc2c1)C(=O)O; dCit = NC(=O)NCCC[C@@H](N)C(=O)O; d3Pal = N[C@H](Cc1cccnc1)C(=O)O

Test system: patients with confirmed endometriosis
Assay: Weekly s.c. administration of 3 mg LHRH antagonist for 8 weeks to patients with confirmed endometriosis
Assay type: in vivo, human
Details: for hot flushes or other (estradiol) withdrawal symptoms / proliferation of the endometrium (histological biopsies): 3 mg weekly for 8 weeks; for proliferation of the endometrium (histological biopsies): at the end of treatment
Description: The weekly administration of an adequate dose of an LHRH antagonist, e.g. 3 mg Cetrotide® s.c./per week over a period of eight weeks leads to a controlled suppression of estrogen secretion so that serum concentrations between about 35 pg/ml and about 80 pg/ml, preferably between about 45-75 pg/ml, more preferably between about 50-75 pg/ml are obtained. […] Also the development of osteoporosis can be avoided.

`CC(=O)N[C@H](Cc1ccc2ccccc2c1)C(=O)N[C@H](Cc1ccc(Cl)cc1)C(=O)N[C@H](Cc1cccnc1)C(=O)N[C@@H](CO)C(=O)N[C@@H](Cc1ccc(O)cc1)C(=O)N[C@H](CCCNC(N)=O)C(=O)N[C@@H](CC(C)C)C(=O)N[C@@H](CCCNC(=N)N)C(=O)N1CCC[C@H]1C(=O)N[C@H](C)C(N)=O` [Cetrorelix acetate] (Ac-[d2Nal][dPhe(4-Cl)][d3Pal]SY[dCit]LRP[dA]-NH2) was tested, and the ovarian cyst formation (3 mg s.c. weekly for 8 weeks) was “No ovarian cyst formation occurred”, the “progress of the disease confirmed by 2nd look laparascopy” value (3 mg s.c. weekly for 8 weeks) was “without any progress of the disease” and the “hot flushes or other (estradiol) withdrawal symptoms” value was “avoiding any hot flushes or other withdrawal symptoms”. The “proliferation of the endometrium (histological biopsies)” value was “no proliferation of the endometrium”, the “proliferation of the endometrium (histological biopsies)” value (listed as Cetrorelix) was “without proliferation of the endometrium” and the “hot flushes or other (estradiol) withdrawal symptoms” value (listed as Cetrorelix) was “without any signs of estradiol withdrawal symptoms”.
